According to EP4603105A1, “PHARMACEUTICAL COMPOSITION CONTAINING CYCLIC COMPOUND HAVING SELECTIVE KRAS INHIBITORY EFFECT AGAINST HRAS AND NRAS” (CHUGAI SEIYAKU KABUSHIKI KAISHA, priority 2022, dated 2024):
pIC50: −log10 of the molar value.

Legend:
[1] = test system: human lung cancer strain NCI-H441; assay type: cell-based
Summary of the method: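 Readout: […] after the ATP-based reagent. Compound: serial dilutions in dimethyl sulfoxide.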

[2] = target: HRAS wild-type protein (Homo sapiens, UniProt P01112); assay: Binding to HRAS by surface plasmon resonance (SPR), KD and KD ratio to KRAS; conditions: ratio of KD value for HRAS wild-type protein to KD value for KRAS (SPR)
Chain of HRAS wild-type protein (P01112 whole entry): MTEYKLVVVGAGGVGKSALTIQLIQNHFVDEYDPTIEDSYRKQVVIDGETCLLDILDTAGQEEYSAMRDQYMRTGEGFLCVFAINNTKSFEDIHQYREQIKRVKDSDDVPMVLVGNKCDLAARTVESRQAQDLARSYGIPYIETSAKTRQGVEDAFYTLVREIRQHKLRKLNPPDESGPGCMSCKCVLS
Summary of the method: (§1)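 GDP-loaded biotinylated Avi-tag RAS proteins (E. coli-expressed) captured on a Biotin CAPture chip at ~100–300 RU; single-cycle kinetics at 30°C, 100 µL/min, 75 s injections of rising compound concentrations. HBS pH 7.4 running buffer with 1 mM DTT, 10 mM MgCl2, 10 µM GDP, 4% DMSO. KD from 1:1 binding fit.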

[3] = target: GDP-bound NRAS wild-type protein (Homo sapiens, UniProt P01111); assay: Binding to NRAS by surface plasmon resonance (SPR), KD and KD ratio to KRAS; conditions: ratio of KD value for GDP-bound NRAS wild-type protein to KD value for KRAS (SPR)
Chain of GDP-bound NRAS wild-type protein (P01111 whole entry): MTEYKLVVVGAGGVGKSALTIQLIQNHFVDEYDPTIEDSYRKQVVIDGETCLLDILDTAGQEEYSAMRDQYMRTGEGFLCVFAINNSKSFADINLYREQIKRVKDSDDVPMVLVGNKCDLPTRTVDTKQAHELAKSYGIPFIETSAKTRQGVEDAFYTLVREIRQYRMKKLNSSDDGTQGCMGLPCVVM
Summary of the method: as §1

`CCCN(C)C(=O)[C@@H]1CC(=O)N(C)[C@@H](CC2CCC2)C(=O)N[C@@H]([C@@H](C)CC)C(=O)N(C)CC(=O)N(C)[C@H]2C/C=C\CCN(C2=O)[C@@H](Cc2ccc(C(F)(F)F)cc2)C(=O)N(C)CC(=O)N[C@@H](CCc2cc(F)c(C(F)(F)F)c(F)c2)C(=O)N2C[C@H](OCC)C[C@H]2C(=O)NC2(CCC2)C(=O)N(C)[C@@H](C2CCCC2)C(=O)N1C` [PP1705] was tested, and the pIC50 [1] was 8.10, the “HRAS /KRAS” value [2] was “A (a compound having 10 or more and less than 20 is denoted as A)” and the “NRAS /KRAS” value [3] was “AA (a compound having 20 or more is denoted as AA)”.
In the case of `CC[C@H](C)[C@@H]1NC(=O)[C@H](C)N(C)C(=O)C[C@@H](C(=O)N(C)C)N(C)C(=O)[C@H](C2CCCC2)N(C)C(=O)C2(CC(C)(C)C2)NC(=O)[C@@H]2CC(F)(F)CN2C(=O)[C@H](CCc2cc(F)c(C(F)(F)F)c(F)c2)NC(=O)CN(C)C(=O)[C@H](Cc2ccc(C(F)(F)F)cc2)N2CC/C=C\C[C@@H](C2=O)N(C)C(=O)CN(C)C1=O` [PP1707], the pIC50 [1] was 8.13, the “HRAS /KRAS” value [2] was “A (a compound having 10 or more and less than 20 is denoted as A)” and the “NRAS /KRAS” value [3] was “AA (a compound having 20 or more is denoted as AA)”.
`CC[C@H](C)[C@@H]1NC(=O)[C@H](CC(F)F)N(C)C(=O)C[C@@H](C(=O)N(C)C)N(C)C(=O)[C@H](C2CCCC2)N(C)C(=O)C2(CC(C)(C)C2)NC(=O)[C@@H]2CC(F)(F)CN2C(=O)[C@H](CCc2cc(F)c(C(F)(F)F)c(F)c2)NC(=O)CN(C)C(=O)[C@H](Cc2ccc(C(F)(F)F)cc2)N2CC/C=C\C[C@@H](C2=O)N(C)C(=O)CN(C)C1=O` [PP1709] was tested, and the pIC50 [1] was 8.42, the “HRAS /KRAS” value [2] was “A (a compound having 10 or more and less than 20 is denoted as A)” and the “NRAS /KRAS” value [3] was “A (a compound having 10 or more and less than 20 is denoted as A)”.
For `CC[C@H](C)[C@@H]1NC(=O)[C@H](CC(F)(F)F)N(C)C(=O)C[C@@H](C(=O)N(C)C)N(C)C(=O)[C@H](C2CCCC2)N(C)C(=O)C2(CC(C)(C)C2)NC(=O)[C@@H]2CC(F)(F)CN2C(=O)[C@H](CCc2cc(F)c(C(F)(F)F)c(F)c2)NC(=O)CN(C)C(=O)[C@H](Cc2ccc(C(F)(F)F)cc2)N2CC/C=C\C[C@@H](C2=O)N(C)C(=O)CN(C)C1=O` [PP1710], the pIC50 [1] was 8.39, the “HRAS /KRAS” value [2] was “B (a compound having 3 or more and less than 10 is denoted as B)” and the “NRAS /KRAS” value [3] was “A (a compound having 10 or more and less than 20 is denoted as A)”.
`CCC[C@H]1C(=O)N[C@@H]([C@@H](C)CC)C(=O)N(C)CC(=O)N(C)[C@H]2C/C=C\CCN(C2=O)[C@@H](Cc2ccc(C(F)(F)F)cc2)C(=O)N(C)CC(=O)N[C@@H](CCc2cc(F)c(C(F)(F)F)c(F)c2)C(=O)N2CC(F)(F)C[C@H]2C(=O)NC2(CC(C)(C)C2)C(=O)N(C)[C@@H](C2CCCC2)C(=O)N(C)[C@H](C(=O)N(C)C)CC(=O)N1C` [PP1711] was tested, and the pIC50 [1] was 8.30, the “HRAS /KRAS” value [2] was “B (a compound having 3 or more and less than 10 is denoted as B)” and the “NRAS /KRAS” value [3] was “A (a compound having 10 or more and less than 20 is denoted as A)”.
In the case of `CC[C@H](C)[C@@H]1NC(=O)[C@H](CC2CC2)N(C)C(=O)C[C@@H](C(=O)N(C)C)N(C)C(=O)[C@H](C2CCCC2)N(C)C(=O)C2(CC(C)(C)C2)NC(=O)[C@@H]2CC(F)(F)CN2C(=O)[C@H](CCc2cc(F)c(C(F)(F)F)c(F)c2)NC(=O)CN(C)C(=O)[C@H](Cc2ccc(C(F)(F)F)cc2)N2CC/C=C\C[C@@H](C2=O)N(C)C(=O)CN(C)C1=O` [PP1713], the pIC50 [1] was 8.10, the “HRAS /KRAS” value [2] was “A (a compound having 10 or more and less than 20 is denoted as A)” and the “NRAS /KRAS” value [3] was “A (a compound having 10 or more and less than 20 is denoted as A)”.
In the case of `CCCC[C@H]1C(=O)N[C@@H]([C@@H](C)CC)C(=O)N(C)CC(=O)N(C)[C@H]2C/C=C\CCN(C2=O)[C@@H](Cc2ccc(C(F)(F)F)cc2)C(=O)N(C)CC(=O)N[C@@H](CCc2cc(F)c(C(F)(F)F)c(F)c2)C(=O)N2CC(F)(F)C[C@H]2C(=O)NC2(CC(C)(C)C2)C(=O)N(C)[C@@H](C2CCCC2)C(=O)N(C)[C@H](C(=O)N(C)C)CC(=O)N1C` [PP1714], the pIC50 [1] was 8.37, the “HRAS /KRAS” value [2] was “A (a compound having 10 or more and less than 20 is denoted as A)” and the “NRAS /KRAS” value [3] was “A (a compound having 10 or more and less than 20 is denoted as A)”.
For `CC[C@H](C)[C@@H]1NC(=O)[C@H](CC(C)C)N(C)C(=O)C[C@@H](C(=O)N(C)C)N(C)C(=O)[C@H](C2CCCC2)N(C)C(=O)C2(CC(C)(C)C2)NC(=O)[C@@H]2CC(F)(F)CN2C(=O)[C@H](CCc2cc(F)c(C(F)(F)F)c(F)c2)NC(=O)CN(C)C(=O)[C@H](Cc2ccc(C(F)(F)F)cc2)N2CC/C=C\C[C@@H](C2=O)N(C)C(=O)CN(C)C1=O` [PP1715], the pIC50 [1] was 8.57, the “HRAS /KRAS” value [2] was “A (a compound having 10 or more and less than 20 is denoted as A)” and the “NRAS /KRAS” value [3] was “AA (a compound having 20 or more is denoted as AA)”.
With `CC[C@H](C)[C@@H]1NC(=O)[C@H](CC2CCC2)N(C)C(=O)C[C@@H](C(=O)N(C)C)N(C)C(=O)[C@H](C2CCCC2)N(C)C(=O)C2(CC(C)(C)C2)NC(=O)[C@@H]2CC(F)(F)CN2C(=O)[C@H](CCc2cc(F)c(C(F)(F)F)c(F)c2)NC(=O)CN(C)C(=O)[C@H](Cc2ccc(C(F)(F)F)cc2)N2CC/C=C\C[C@@H](C2=O)N(C)C(=O)CN(C)C1=O` [PP1716] the pIC50 [1] was 8.42, the “HRAS /KRAS” value [2] was “A (a compound having 10 or more and less than 20 is denoted as A)” and the “NRAS /KRAS” value [3] was “AA (a compound having 20 or more is denoted as AA)”.
For `CC[C@H](C)[C@@H]1NC(=O)[C@H](COC)N(C)C(=O)C[C@@H](C(=O)N(C)C)N(C)C(=O)[C@H](C2CCCC2)N(C)C(=O)C2(CC(C)(C)C2)NC(=O)[C@@H]2CC(F)(F)CN2C(=O)[C@H](CCc2cc(F)c(C(F)(F)F)c(F)c2)NC(=O)CN(C)C(=O)[C@H](Cc2ccc(C(F)(F)F)cc2)N2CC/C=C\C[C@@H](C2=O)N(C)C(=O)CN(C)C1=O` [PP1717], the pIC50 [1] was 8.62, the “HRAS /KRAS” value [2] was “A (a compound having 10 or more and less than 20 is denoted as A)” and the “NRAS /KRAS” value [3] was “A (a compound having 10 or more and less than 20 is denoted as A)”.
With `CCCOC[C@H]1C(=O)N[C@@H]([C@@H](C)CC)C(=O)N(C)CC(=O)N(C)[C@H]2C/C=C\CCN(C2=O)[C@@H](Cc2ccc(C(F)(F)F)cc2)C(=O)N(C)CC(=O)N[C@@H](CCc2cc(F)c(C(F)(F)F)c(F)c2)C(=O)N2CC(F)(F)C[C@H]2C(=O)NC2(CC(C)(C)C2)C(=O)N(C)[C@@H](C2CCCC2)C(=O)N(C)[C@H](C(=O)N(C)C)CC(=O)N1C` [PP1718] the pIC50 [1] was 8.60, the “HRAS /KRAS” value [2] was “A (a compound having 10 or more and less than 20 is denoted as A)” and the “NRAS /KRAS” value [3] was “AA (a compound having 20 or more is denoted as AA)”.
For `CCCN(C)C(=O)[C@@H]1CC(=O)N(C)[C@@H](CC(F)F)C(=O)N[C@@H]([C@@H](C)CC)C(=O)N(C)CC(=O)N(C)[C@H]2C/C=C\CCN(C2=O)[C@@H](Cc2ccc(C(F)(F)F)cc2)C(=O)N(C)CC(=O)N[C@@H](CCc2cc(F)c(C(F)(F)F)c(F)c2)C(=O)N2CCC[C@H]2C(=O)NC2(CC(C)(C)C2)C(=O)N(C)[C@@H](C2CCCC2)C(=O)N1C` [PP1721], the pIC50 [1] was 8.00, the “HRAS /KRAS” value [2] was “A (a compound having 10 or more and less than 20 is denoted as A)” and the “NRAS /KRAS” value [3] was “A (a compound having 10 or more and less than 20 is denoted as A)”.
`CC[C@H](C)[C@@H]1NC(=O)[C@H](CC(F)(F)F)N(C)C(=O)C[C@@H](C(=O)N(C)C)N(C)C(=O)[C@H](C2CCCC2)N(C)C(=O)C2(CC(C)(C)C2)NC(=O)[C@@H]2CCCN2C(=O)[C@H](CCc2cc(F)c(C(F)(F)F)c(F)c2)NC(=O)CN(C)C(=O)[C@H](Cc2ccc(C(F)(F)F)cc2)N2CC/C=C\C[C@@H](C2=O)N(C)C(=O)CN(C)C1=O` [PP1722] was tested, and the pIC50 [1] was 8.74, the “HRAS /KRAS” value [2] was “A (a compound having 10 or more and less than 20 is denoted as A)” and the “NRAS /KRAS” value [3] was “AA (a compound having 20 or more is denoted as AA)”.
With `CC[C@H](C)[C@@H]1NC(=O)[C@H](CC(C)C)N(C)C(=O)C[C@@H](C(=O)N(C)C)N(C)C(=O)[C@H](C2CCCC2)N(C)C(=O)C2(CC(C)(C)C2)NC(=O)[C@@H]2CCCN2C(=O)[C@H](CCc2cc(F)c(C(F)(F)F)c(F)c2)NC(=O)CN(C)C(=O)[C@H](Cc2ccc(C(F)(F)F)cc2)N2CC/C=C\C[C@@H](C2=O)N(C)C(=O)CN(C)C1=O` [PP1727] the pIC50 [1] was 8.40, the “HRAS /KRAS” value [2] was “A (a compound having 10 or more and less than 20 is denoted as A)” and the “NRAS /KRAS” value [3] was “A (a compound having 10 or more and less than 20 is denoted as A)”.
For `CC[C@H](C)[C@@H]1NC(=O)[C@H](CC2CCC2)N(C)C(=O)C[C@@H](C(=O)N(C)C)N(C)C(=O)[C@H](C2CCCC2)N(C)C(=O)C2(CC(C)(C)C2)NC(=O)[C@@H]2CCCN2C(=O)[C@H](CCc2cc(F)c(C(F)(F)F)c(F)c2)NC(=O)CN(C)C(=O)[C@H](Cc2ccc(C(F)(F)F)cc2)N2CC/C=C\C[C@@H](C2=O)N(C)C(=O)CN(C)C1=O` [PP1728], the pIC50 [1] was 7.74, the “HRAS /KRAS” value [2] was “A (a compound having 10 or more and less than 20 is denoted as A)” and the “NRAS /KRAS” value [3] was “A (a compound having 10 or more and less than 20 is denoted as A)”.
